From PubChem BioAssay AID2060493 (Molecular Pharmacology Branch, DTP, NCI, 2025)
pIC50: −log10 of the molar value.

System: 616215-338-R-J1-PDC tumor spheroids, viability
Experiment: Anticancer human tumor 616215-338-R-J1-PDC patient-derived colon adenocarcinoma cell line growth inhibition [GQUAD]
Details: spheroids with HUVEC and MSC; for pIC50: curve of first compound; for viability, T/C: stronger effect = lower value
Summary of the method: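 Tumor cells were grown as complex spheroids with HUVEC endothelial cells and mesenchymal stem cells as stroma. G-quadruplex stabilizers were combined with targeted agents over half-log dilutions from near the clinical Cmax, or from 10 microM.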

[1] = second compound 0.0316 µM, first compound 0.0316 µM
[2] = second compound 0.0316 µM, first compound 0.1 µM
[3] = second compound 0.0316 µM, first compound 0.316 µM
[4] = second compound 0.0316 µM, first compound 1 µM
[5] = second compound 0.0316 µM, first compound 3.16 µM
[6] = second compound 0.0316 µM, first compound 10 µM
[7] = second compound 0.1 µM, first compound 0.0316 µM
[8] = second compound 0.1 µM, first compound 0.1 µM
[9] = second compound 0.1 µM, first compound 0.316 µM
[10] = second compound 0.1 µM, first compound 1 µM
[11] = second compound 0.1 µM, first compound 3.16 µM
[12] = second compound 0.1 µM, first compound 10 µM
[13] = second compound 0.316 µM, first compound 0.0316 µM
[14] = second compound 0.316 µM, first compound 0.1 µM
[15] = second compound 0.316 µM, first compound 0.316 µM
[16] = second compound 0.316 µM, first compound 1 µM
[17] = second compound 0.316 µM, first compound 3.16 µM
[18] = second compound 0.316 µM, first compound 10 µM
[19] = second compound 1 µM, first compound 0.0316 µM
[20] = second compound 1 µM, first compound 0.1 µM
[21] = second compound 1 µM, first compound 0.316 µM
[22] = second compound 1 µM, first compound 1 µM
[23] = second compound 1 µM, first compound 3.16 µM
[24] = second compound 1 µM, first compound 10 µM
[25] = second compound 3.16 µM, first compound 0.0316 µM
[26] = second compound 3.16 µM, first compound 0.1 µM
[27] = second compound 3.16 µM, first compound 0.316 µM
[28] = second compound 3.16 µM, first compound 1 µM
[29] = second compound 3.16 µM, first compound 3.16 µM
[30] = second compound 3.16 µM, first compound 10 µM
[31] = second compound 10 µM, first compound 0.0316 µM
[32] = second compound 10 µM, first compound 0.1 µM
[33] = second compound 10 µM, first compound 0.316 µM
[34] = second compound 10 µM, first compound 1 µM
[35] = second compound 10 µM, first compound 3.16 µM
[36] = second compound 10 µM, first compound 10 µM
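Note: spheroids exposed to agents for 7 days before readout.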
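Throughout, for viability, T/C: percent viability relative to DMSO vehicle control wells taken as 100%.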

In the case of `CC(=O)O[C@H]1C(=O)[C@@]2(C)[C@H]([C@H](OC(=O)c3ccccc3)[C@]3(O)C[C@H](OC(=O)[C@H](O)[C@@H](NC(=O)c4ccccc4)c4ccccc4)C(C)=C1C3(C)C)[C@]1(OC(C)=O)CO[C@@H]1C[C@@H]2O` + Cc1cnc(CNC(=O)c2c(=O)c3ccc(N4CCCN(C)CC4)nc3n3c2sc2ccccc23)cn1, the pIC50 (second compound 0.0316 µM) was over 7.50, the pIC50 (second compound 0.1 µM) was over 7.50 and the pIC50 (second compound 0.316 µM) was over 7.50. It also gave a pIC50 (second compound 1 µM) of over 7.50, a pIC50 (second compound 3.16 µM) of over 7.50 and a pIC50 (second compound 10 µM) of over 7.50. It also gave a viability, T/C [1] of 37.2%, a viability, T/C [2] of 24.9% and a viability, T/C [3] of 20.3%. The viability, T/C [4] was 15.9%, the viability, T/C [5] was 27.6% and the viability, T/C [6] was 17.1%. The viability, T/C [7] was 26.9%, the viability, T/C [8] was 35.8% and the viability, T/C [9] was 31.1%. For the same molecule, the viability, T/C [10] was 26.7%, the viability, T/C [11] was 26.2% and the viability, T/C [12] was 32%. It also gave a viability, T/C [13] of 37%, a viability, T/C [14] of 34.4% and a viability, T/C [15] of 38.5%. The viability, T/C [16] was 36.4%, the viability, T/C [17] was 39.4% and the viability, T/C [18] was 24.7%. It also gave a viability, T/C [19] of 22.9%, a viability, T/C [20] of 35.4% and a viability, T/C [21] of 30.1%. For the same molecule, the viability, T/C [22] was 37.9%, the viability, T/C [23] was 30.2% and the viability, T/C [24] was 33.8%. The viability, T/C [25] was 26.6%, the viability, T/C [26] was 21.6% and the viability, T/C [27] was 28.9%. For the same molecule, the viability, T/C [28] was 35.8%, the viability, T/C [29] was 22.5% and the viability, T/C [30] was 30.2%. For the same molecule, the viability, T/C [31] was 25%, the viability, T/C [32] was 22.3% and the viability, T/C [33] was 27.9%. It also gave a viability, T/C [34] of 25%, a viability, T/C [35] of 24.4% and a viability, T/C [36] of 25.8%.
With `CC1COCCN1c1cc(C2(O)CC3CCC(C2)O3)c2cnn(-c3ccn[nH]3)c2n1` (stereo not drawn) + Cc1cnc(CNC(=O)c2c(=O)c3ccc(N4CCCN(C)CC4)nc3n3c2sc2ccccc23)cn1 the pIC50 (second compound 0.0316 µM) was 6.97, the pIC50 (second compound 0.1 µM) was over 7.50 and the pIC50 (second compound 0.316 µM) was over 7.50. The pIC50 (second compound 1 µM) was over 7.50, the pIC50 (second compound 3.16 µM) was over 7.50 and the pIC50 (second compound 10 µM) was over 7.50. For the same molecule, the viability, T/C [1] was 76.3%, the viability, T/C [2] was 52.5% and the viability, T/C [3] was 29.4%. It also gave a viability, T/C [4] of 27.6%, a viability, T/C [5] of 25.2% and a viability, T/C [6] of 16.3%. The viability, T/C [7] was 38%, the viability, T/C [8] was 35.2% and the viability, T/C [9] was 33%. For the same molecule, the viability, T/C [10] was 24.1%, the viability, T/C [11] was 20.8% and the viability, T/C [12] was 25.4%. The viability, T/C [13] was 43%, the viability, T/C [14] was 30.8% and the viability, T/C [15] was 23.8%. For the same molecule, the viability, T/C [16] was 19.7%, the viability, T/C [17] was 18.9% and the viability, T/C [18] was 13.2%. For the same molecule, the viability, T/C [19] was 29.5%, the viability, T/C [20] was 32.9% and the viability, T/C [21] was 22.2%. It also gave a viability, T/C [22] of 28.2%, a viability, T/C [23] of 22.3% and a viability, T/C [24] of 17.6%. The viability, T/C [25] was 42.9%, the viability, T/C [26] was 22% and the viability, T/C [27] was 18.1%. For the same molecule, the viability, T/C [28] was 20.7%, the viability, T/C [29] was 15.8% and the viability, T/C [30] was 5.2%. The viability, T/C [31] was 24.5%, the viability, T/C [32] was 28.1% and the viability, T/C [33] was 29.5%. The viability, T/C [34] was 14.7%, the viability, T/C [35] was 11.2% and the viability, T/C [36] was 0.29%.
`COc1ccc([C@@H](O)c2cc(-c3ncnc4cc(N5CCOCC5)ccc34)c(F)cc2Cl)nn1` + Cc1cnc(CNC(=O)c2c(=O)c3ccc(N4CCCN(C)CC4)nc3n3c2sc2ccccc23)cn1 gave a pIC50 (second compound 0.0316 µM) of 6.10, a pIC50 (second compound 0.1 µM) of 6.11 and a pIC50 (second compound 0.316 µM) of over 7.50. The pIC50 (second compound 1 µM) was over 7.50, the pIC50 (second compound 3.16 µM) was over 7.50 and the pIC50 (second compound 10 µM) was over 7.50. For the same molecule, the viability, T/C [1] was 102%, the viability, T/C [2] was 92.4% and the viability, T/C [3] was 93.9%. For the same molecule, the viability, T/C [4] was 39.3%, the viability, T/C [5] was 30.1% and the viability, T/C [6] was 25.3%. It also gave a viability, T/C [7] of 59.2%, a viability, T/C [8] of 74.2% and a viability, T/C [9] of 61.2%. The viability, T/C [10] was 42.2%, the viability, T/C [11] was 39.9% and the viability, T/C [12] was 24.6%. It also gave a viability, T/C [13] of 43.6%, a viability, T/C [14] of 46.8% and a viability, T/C [15] of 43%. The viability, T/C [16] was 27.9%, the viability, T/C [17] was 26.4% and the viability, T/C [18] was 14.6%. The viability, T/C [19] was 25.3%, the viability, T/C [20] was 28.6% and the viability, T/C [21] was 30.5%. For the same molecule, the viability, T/C [22] was 21.8%, the viability, T/C [23] was 22.8% and the viability, T/C [24] was 7.7%. The viability, T/C [25] was 23.1%, the viability, T/C [26] was 26.9% and the viability, T/C [27] was 30.1%. The viability, T/C [28] was 25%, the viability, T/C [29] was 15.9% and the viability, T/C [30] was 3.64%. It also gave a viability, T/C [31] of 33.8%, a viability, T/C [32] of 25.8% and a viability, T/C [33] of 32.3%. It also gave a viability, T/C [34] of 20%, a viability, T/C [35] of 15.4% and a viability, T/C [36] of 3.43%.
`COc1cc(C2c3cc4c(cc3C(OC3OC5COC(C)OC5C(O)C3O)C3COC(=O)C23)OCO4)cc(OC)c1O` (stereo not drawn) + CN(C)c1ccc(Nc2c3ccc(NC(=O)CCN4CCCC4)cc3nc3cc(NC(=O)CCN4CCCC4)ccc23)cc1 showed a pIC50 (second compound 0.0316 µM) of 6.01, a pIC50 (second compound 0.1 µM) of 6.18 and a pIC50 (second compound 0.316 µM) of 6.16. For the same molecule, the pIC50 (second compound 1 µM) was 6.12, the pIC50 (second compound 3.16 µM) was 6.19 and the pIC50 (second compound 10 µM) was 6.31. It also gave a viability, T/C [1] of 99.3%, a viability, T/C [2] of 103% and a viability, T/C [3] of 67.8%. It also gave a viability, T/C [4] of 51.9%, a viability, T/C [5] of 31.9% and a viability, T/C [6] of 20.7%. It also gave a viability, T/C [7] of 94.7%, a viability, T/C [8] of 107% and a viability, T/C [9] of 71.6%. The viability, T/C [10] was 37.5%, the viability, T/C [11] was 31% and the viability, T/C [12] was 18.7%. The viability, T/C [13] was 100%, the viability, T/C [14] was 95.6% and the viability, T/C [15] was 63.4%. It also gave a viability, T/C [16] of 41%, a viability, T/C [17] of 33.1% and a viability, T/C [18] of 16.6%. The viability, T/C [19] was 100%, the viability, T/C [20] was 91.6% and the viability, T/C [21] was 58.5%. For the same molecule, the viability, T/C [22] was 44.6%, the viability, T/C [23] was 34.3% and the viability, T/C [24] was 14.2%. The viability, T/C [25] was 96.4%, the viability, T/C [26] was 85% and the viability, T/C [27] was 55.9%. It also gave a viability, T/C [28] of 43.6%, a viability, T/C [29] of 31.6% and a viability, T/C [30] of 15.9%. For the same molecule, the viability, T/C [31] was 97.2%, the viability, T/C [32] was 83.2% and the viability, T/C [33] was 52.6%. It also gave a viability, T/C [34] of 40%, a viability, T/C [35] of 25.9% and a viability, T/C [36] of 15%.
